Measurements: US8940770B2, “Nitropyridinyl ethyleneimine compound, the pharmaceutical composition containing it, the preparation method and use thereof” (Beijing Yiling Bioengineering Co., Ltd, priority 2008, dated 2015)
Like-named read-outs stand apart in the source and are kept apart here.

Assays:
[1] = test system: human non-small cell lung cancer cell line A549; assay: SRB cell viability assay, wild-type A549, normoxic and hypoxic drug treatment; format: cell-based; conditions: for IC50: Homo sapiens, 4 h drug treatment, then 4 days normoxic culture, SRB, mean ± SD; for HCR O2/N2 (WT): wild-type A549, HCR = IC50 in normoxia/IC50 in hypoxia
Procedure: (§1) Tumor cell strain: human non-small cell lung cancer cell line A549.
(§2) Reagent system: SRB, transfection kit
(§3) The cell strains/the cypor transfected cell strains were subject to normoxic and hypoxic cultivations respectively. Then, the cell vitality was analyzed by SRB assay and IC50 values were calculated. At last, the ratio of IC50 values in normoxia and in hypoxia (hypoxic cytotoxicity ratio, HCR) was calculated.
(§4) Both the human non-small cell lung cancer cell line A549 and the cypor transfected cell strains were cultivated in F12 cultivation medium containing 10% fetal bovine serum at 37° C. and in 5% CO2
(§5) The concentration gradient for the drug was set as 10^−3, 10^−4, 10^−5, 10^−6, and 10^−7 mol/L.
(§6) The crystallized powder of the active ingredient was dissolved in DMSO and formulated into a stock solution having a concentration which was 100 times of the maximal administrated concentration of the drug. The administrated concentrations of the drug could be prepared by directly diluting the stock solution with the corresponding serum-free cultivation medium.
(§7) the stock solution was stored at −80° C. in a refrigerator and the solutions of the drug to be administrated were prepared immediately before use.
(§8) The cell in the exponential growth phase was adjusted to a cell density of 1.0×10^5/ml and seeded into a 96-well plate at 100 μl per well. The drug was added under the normoxic and hypoxic condition respectively, according to the experimental grouping, and each of treatments using the drug lasted for 4 h.
(§9) After treatment using the drug was completed, the treated cells were normally cultivated under a normoxic condition for 4 days and then the cell survival rate was assayed by SRB. IC50 was calculated according to the equation of Lg IC50=Σ(Xi+Xi+1)(Pi+1−Pi)/2. Hypoxia cytotoxicity ratio (HCR) was obtained through dividing IC50 value in normoxia by IC50 value in hypoxia. The greater the HCR value is, the stronger the hypoxic selectivity of the drug will be.
(§10) All of the data were statistically analyzed using the software SPSS 11.5, the results were expressed as a mean±standard deviation ( X±SD), the inter-group difference was tested with the program One-Way ANOVA, P<0.05 means a statistically significant difference.

[2] = test system: A549 transfected with human cytochrome P450 reducease (CYPOR); assay: cells; format: cell-based; conditions: for IC50: Homo sapiens
Procedure: as §1, §2, §3, §4, §5, §6, §7, §8, §9, §10

[3] = wild-type A549, hypoxia (N2), read-out: IC50 N2 (WT)
[4] = wild-type A549, normoxia (O2), read-out: IC50 O2 (WT)
[5] = A549, read-out: IC50 N2 (CYPOR)
[6] = A549, read-out: IC50 O2 (CYPOR)

In the case of `NC(=O)c1ccc([N+](=O)[O-])c(N2CC2)n1` [Compound V, 2-(1-ethyleneimine)-6-carbamoyl-3-nitropyridine], the IC50 [1, 3] is reported as 9.4 ± 2.65 µM, the IC50 [1, 4] is reported as 79.3 ± 4.77 µM and the “HCR O2/N2 (WT)” value [1] is reported as 8.4 ± 3.56. For the same compound, the “HCR O2/N2 (CYPOR)” value [2] was 35.9 ± 9.15, the IC50 [2, 5] was 1.7 ± 0.38 µM and the IC50 [2, 6] was 61 ± 7.11 µM. For the same compound, the melting point was 170 °C (dec.).

In the case of `NC(=O)c1cc([N+](=O)[O-])cnc1N1CC1` [Compound IV, 2-(1-ethyleneimine)-3-carbamoyl-5-nitropyridine], the IC50 [1, 3] is reported as 56.6 ± 7.17 µM, the IC50 [1, 4] is reported as 317.2 ± 2.79 µM and the “HCR O2/N2 (WT)” value [1] is reported as 5.6 ± 2.73. For the same compound, the “HCR O2/N2 (CYPOR)” value [2] was 21.3 ± 4.56, the IC50 [2, 5] was 9.3 ± 3.2 µM and the IC50 [2, 6] was 198 ± 24.9 µM. For the same compound, the melting point was 160 °C (dec.).

For `NC(=O)c1ccnc(N2CC2)c1[N+](=O)[O-]` [Compound II, 2-(1-ethyleneimine)-4-carbamoyl-3-nitropyridine], the IC50 [1, 3] was 15.5 ± 2.67 µM, the IC50 [1, 4] was 198 ± 5.04 µM and the “HCR O2/N2 (WT)” value [1] was 12.8 ± 2.87. For the same compound, the “HCR O2/N2 (CYPOR)” value [2] was 52.5 ± 3.51, the IC50 [2, 5] was 2.7 ± 0.58 µM and the IC50 [2, 6] was 142 ± 10.1 µM. The melting point was 170 °C (dec.).

For `NC(=O)c1cnc(N2CC2)c([N+](=O)[O-])c1` [Compound III, 2-(1-ethyleneimine)-5-carbamoyl-3-nitropyridine], the IC50 [1, 3] was 13.5 ± 3.2 µM, the IC50 [1, 4] was 257 ± 4.83 µM and the “HCR O2/N2 (WT)” value [1] was 19.0 ± 3.91. For the same compound, the “HCR O2/N2 (CYPOR)” value [2] was 62.0 ± 8.32, the IC50 [2, 5] was 2.3 ± 0.27 µM and the IC50 [2, 6] was 143 ± 9.96 µM. For the same compound, the melting point was 150 °C (dec.).

With `NC(=O)c1cc(N2CC2)ncc1[N+](=O)[O-]` [Compound VI, 2-(1-ethyleneimine)-4-carbamoyl-5-nitropyridine] the IC50 [1, 3] was 5.5 ± 1.6 µM, the IC50 [1, 4] was 137 ± 7.34 µM and the “HCR O2/N2 (WT)” value [1] was 25.0 ± 5.71. For the same compound, the “HCR O2/N2 (CYPOR)” value [2] was 108.7 ± 8.88, the IC50 [2, 5] was 1.1 ± 0.16 µM and the IC50 [2, 6] was 120 ± 6.48 µM. For the same compound, the melting point was 170 °C (dec.).
